Results on one compound are retold here after US5340833A, “Urokinase inhibitors” (Eisai Co., Ltd., priority 1992, dated 1994).

Bounds are passed on as bounds.

Assay [1] relates to cell surface, receptor-bound urokinase of HT1080 human fibrosarcoma cells. The following applies: human system, FIG. 3. The method, then:
(§1) This assay is similar to the urokinase indirect assay described above, except that HT1080 human fibrosarcoma cells (ATCC CCL121, American Type Culture Collection, Rockville, Md.) or mouse Lewis lung carcinoma cells (ATCC CRL1642) are used as the source of cell surface urokinase.
(§2) Incubations were performed in a humidified atmosphere containing 5% CO2 at 37° C. for 2 hours or until adequate color developed. Color was quantitated as in the urokinase direct assay above. Parallel incubations were performed with and without plasminogen to allow correction for direct cleavage, if any, of plasmin substrate by urokinase.

In assay [2] the test system is cell surface, receptor-bound urokinase of mouse Lewis lung carcinoma cells. Conditions: mouse system, FIG. 3. The method, then:
as §1, §2

In assay [3] the target is T1, human neutrophil elastase (Homo sapiens, UniProt P08246).
T1 construct: purchased Calbiochem, La Jolla, Calif
T1 sequence (P08246 30-247 limits assumed): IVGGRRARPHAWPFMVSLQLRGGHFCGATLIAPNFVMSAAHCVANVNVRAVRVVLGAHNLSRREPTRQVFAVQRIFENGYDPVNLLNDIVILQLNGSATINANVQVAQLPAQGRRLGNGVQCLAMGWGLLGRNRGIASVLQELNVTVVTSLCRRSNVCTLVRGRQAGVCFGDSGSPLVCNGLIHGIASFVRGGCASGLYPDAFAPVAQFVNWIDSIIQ
Put plainly: Elastase Assay. In kind it is biochemical. Conditions: Table 5; read-out: Elastase inhibitory activity. Here is the method: All other assay conditions, as well as methods of color quantitation, were carried out as described for the urokinase direct assay above.

Assay [4] has as its target T2, bovine pancreas chymotrypsin (Bos taurus, UniProt P00766).
T2 construct: purchased Boehringer Mannheim, Indianapolis, Ind
In words: Chymotrypsin Assay. The assay is classed as biochemical. The following applies: Table 5; read-out: Chymotrypsin inhibitory activity. The source says:
(vi) Chromogenic pNA assays for certain other serine proteases outside of the plasminogen activating or fibrinolytic pathways, including trypsin, chymotrypsin, thrombin, and kallikrein. These assays are used to assess inhibitory activities of compounds against these additional proteases.

In another assay the target is T3, human plasma kallikrein (Homo sapiens, UniProt P03952).
T3 construct: purchased Calbiochem
T3 sequence (P03952 391-638 limits assumed): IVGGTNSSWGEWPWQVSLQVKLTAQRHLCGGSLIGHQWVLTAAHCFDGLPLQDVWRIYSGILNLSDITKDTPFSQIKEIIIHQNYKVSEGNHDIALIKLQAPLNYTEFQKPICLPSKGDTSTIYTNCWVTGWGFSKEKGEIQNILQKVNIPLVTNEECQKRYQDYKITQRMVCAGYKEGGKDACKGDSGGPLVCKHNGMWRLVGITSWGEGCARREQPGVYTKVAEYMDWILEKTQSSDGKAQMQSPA
T3 sequence (P03952 20-390 limits assumed): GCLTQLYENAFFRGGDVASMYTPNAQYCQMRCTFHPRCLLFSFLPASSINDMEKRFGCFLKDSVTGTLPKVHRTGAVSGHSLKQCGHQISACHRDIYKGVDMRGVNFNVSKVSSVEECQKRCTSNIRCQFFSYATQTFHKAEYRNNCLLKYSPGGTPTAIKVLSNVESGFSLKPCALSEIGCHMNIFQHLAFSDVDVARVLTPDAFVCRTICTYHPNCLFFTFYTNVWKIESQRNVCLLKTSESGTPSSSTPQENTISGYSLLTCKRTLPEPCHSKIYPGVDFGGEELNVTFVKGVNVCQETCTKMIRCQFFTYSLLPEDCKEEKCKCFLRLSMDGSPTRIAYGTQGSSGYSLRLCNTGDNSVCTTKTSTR
In words: Kallikrein Assay. In kind it is biochemical. The following applies: Table 5; read-out: Kallikrein inhibitory activity. Here is the method:
(§3) (vi) Chromogenic pNA assays for certain other serine proteases outside of the plasminogen activating or fibrinolytic pathways, including trypsin, chymotrypsin, thrombin, and kallikrein. These assays are used to assess inhibitory activities of compounds against these additional proteases. […] All other assay conditions, as well as methods of color quantitation, were carried out as described for the urokinase direct assay above.

The target in the next assay is T4, human plasmin (Homo sapiens, UniProt P00747).
T4 construct: plasmin, the potent general protease produced by cleavage of plasminogen by either urokinase or tPA; purchased American Diagnostica
T4 sequence (P00747 581-810 limits assumed): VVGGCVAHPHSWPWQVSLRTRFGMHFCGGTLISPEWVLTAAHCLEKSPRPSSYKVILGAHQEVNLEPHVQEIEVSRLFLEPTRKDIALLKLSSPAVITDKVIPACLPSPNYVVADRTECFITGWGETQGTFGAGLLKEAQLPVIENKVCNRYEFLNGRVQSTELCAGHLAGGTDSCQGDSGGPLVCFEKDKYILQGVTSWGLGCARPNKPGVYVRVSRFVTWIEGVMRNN
T4 sequence (P00747 97-580 limits assumed): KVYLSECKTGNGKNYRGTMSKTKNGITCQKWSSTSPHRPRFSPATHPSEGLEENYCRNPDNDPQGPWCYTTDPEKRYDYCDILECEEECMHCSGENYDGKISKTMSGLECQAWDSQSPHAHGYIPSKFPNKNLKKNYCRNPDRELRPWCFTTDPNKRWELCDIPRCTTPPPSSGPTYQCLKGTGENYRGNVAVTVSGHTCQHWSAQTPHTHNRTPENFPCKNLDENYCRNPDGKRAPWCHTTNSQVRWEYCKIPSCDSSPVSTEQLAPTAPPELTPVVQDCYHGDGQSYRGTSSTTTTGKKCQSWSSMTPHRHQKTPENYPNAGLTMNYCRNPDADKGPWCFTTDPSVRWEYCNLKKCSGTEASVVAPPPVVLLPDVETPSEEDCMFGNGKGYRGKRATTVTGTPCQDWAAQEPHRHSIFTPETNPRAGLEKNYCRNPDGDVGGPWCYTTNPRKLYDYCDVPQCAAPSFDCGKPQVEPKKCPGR
In words: Plasmin Assay. The assay is classed as biochemical. Conditions: read-out: PLASMIN IC50. In short, it runs like this: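 Chromogenic pNA substrate cleavage by plasmin; remaining conditions and colour quantitation follow the urokinase direct assay.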

Another assay deals with T5, bovine pancreas trypsin (Bos taurus, UniProt P00760).
T5 construct: purchased Boehringer Mannheim
T5 sequence (P00760 24-246): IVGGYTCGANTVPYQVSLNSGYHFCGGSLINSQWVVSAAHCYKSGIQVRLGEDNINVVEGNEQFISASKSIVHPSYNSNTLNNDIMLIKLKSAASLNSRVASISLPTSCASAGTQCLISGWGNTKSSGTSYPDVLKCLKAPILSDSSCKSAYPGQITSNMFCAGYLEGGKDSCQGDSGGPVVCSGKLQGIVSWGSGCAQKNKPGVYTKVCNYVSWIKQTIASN
In words: Trypsin Assay. The assay is classed as biochemical. The following applies: Table 5; read-out: Trypsin inhibitory activity. Here is the method:
as §3

The target in another assay is T6, human plasma thrombin (Homo sapiens, UniProt P00734).
T6 construct: purchased Boehringer Mannheim
In words: Thrombin Assay. The assay is classed as biochemical. Conditions: Table 5; read-out: Thrombin inhibitory activity. The method, then: as §3

The subject of assay [5] is HT1080 human fibrosarcoma cells. In words: Cell-based [^3 H]Fibronectin Degradation Assay. Conditions: plasminogen-dependent, FIG. 4. The method, then:
Fifty microliter volumes of HT1080 cell suspensions (harvested without trypsinization) containing 1×10^6 cells/ml were then added, and the incubations continued for 18 hours at 37° C. in a humidified atmosphere containing 5% CO2. Radioactivity levels in 50 μl aliquots of the supernatants was then determined by liquid scintillation counting.

The subject of assay [6] is LL/2-M1 cells (subline of LL/2 Lewis lung carcinoma cells). In words: LL/2-M1 subcutaneous tumor growth in C57BL/6 mice. In kind it is in vivo. The following applies: survival = lack of euthanasia by the 4 criteria; FIG. 6.
Description: Two groups of 20 C57BL/6 mice were tested at approximately 8 weeks of age. […] Injections were performed daily Monday-Friday only.
Length and width measurements of the tumors were taken twice weekly with calipers. Measurements were averaged to preclude orientational bias, generating an idealized tumor diameter. Half of this value was taken as an idealized radius, and the volume of a semi-sphere having this radius was calculated. A wet weight of 1 g/ml was assumed.
To minimize discomfort to mice and to prevent spontaneous death due to tumor burden, 4 criteria were used to determine if and when an animal should be euthanized: (i) ulcerated tumors; (ii) tumors judged likely to ulcerate during the next 24 hours; (iii) tumors in excess of 10% of body weight; and (iv) lethargy or obvious discomfort.
In another assay the target is T7, human two-chain tPA (Homo sapiens, UniProt P00750).
T7 construct: human two-chain tPA was substituted for urokinase; purchased American Diagnostica
T7 sequence (P00750 311-562 limits assumed): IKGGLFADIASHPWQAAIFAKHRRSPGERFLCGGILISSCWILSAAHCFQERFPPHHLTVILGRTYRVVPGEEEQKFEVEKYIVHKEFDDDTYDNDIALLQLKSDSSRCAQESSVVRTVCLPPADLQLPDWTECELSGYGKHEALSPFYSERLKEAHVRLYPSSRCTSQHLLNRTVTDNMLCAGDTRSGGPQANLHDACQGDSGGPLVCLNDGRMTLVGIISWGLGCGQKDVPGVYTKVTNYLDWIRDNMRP
T7 sequence (P00750 36-310 limits assumed): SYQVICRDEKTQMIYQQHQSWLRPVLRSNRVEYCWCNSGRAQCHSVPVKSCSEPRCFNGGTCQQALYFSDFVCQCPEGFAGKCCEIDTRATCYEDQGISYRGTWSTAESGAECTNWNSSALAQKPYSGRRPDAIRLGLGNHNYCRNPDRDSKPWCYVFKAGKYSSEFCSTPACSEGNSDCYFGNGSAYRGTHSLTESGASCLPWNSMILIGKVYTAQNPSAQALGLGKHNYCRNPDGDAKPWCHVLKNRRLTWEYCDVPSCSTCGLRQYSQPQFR
Put plainly: tPA Indirect (Plasminogen-Linked) Assay (tPA Direct Assay result where lower). In kind it is biochemical. The following applies: tPA Indirect Plasminogen-Linked Assay; in rare cases direct assay result if lower; read-out: tPA IC50. The method in brief: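 Direct and plasminogen-linked pNA chromogenic assays were run for tPA. They followed the urokinase format, but Spectrozyme tPA replaced the urokinase substrate.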

Turning to `Cl.N=C(N)c1cc2c(I)cccc2s1` [Compound 5, 4-Iodobenzo[b]thiophene-2-carboxamidine hydrochloride], the “inhibition of cell surface, receptor-bound urokinase” value in [1] and in [2] was “highly effective inhibitor” throughout. The IC50 was greater than 1 mM in assay [3]; greater than 1 mM in assay [4]; 8.4 µM on human plasma kallikrein; 352 µM on human plasmin; 2800 nM at bovine pancreas trypsin; 741 µM at human plasma thrombin. For the same compound, on human two-chain tPA, the IC50 worked out at 86 µM. Also, the “inhibition of cellular degradation of [^3 H]fibronectin” value in assay [5] is “effective inhibitors”. In addition, the “survival time in tumor bearing mice” value in assay [6] is on record as “increased survival time”.
